Earlier results as cited in patent US20170172905A1, “AGENT FOR TEMPORARILY RESHAPING KERATIN-CONTAINING FIBERS COMPRISING PRESERVATIVE” (Henkel AG & Co. KGaA, priority 2015, published 2017).

For `CCCCC(CC)CN1CN(CC(CC)CCCC)CC(C)(N)C1` (stereo not shown) [hexetidine, 5-amino-1,3-bis(2-ethylhexal)hexahydro-5-methylpyrimidine], the logP value is given as 5.25.
